Assay results from patent US11274082B2, “Tead inhibitors and uses thereof” (Ikena Oncology, Inc., priority 2019, dated 2022).
Like-named read-outs stand apart in the source and are kept apart here.

Key:
[1] = tested on: TEAD; experiment: TEAD reporter assay (Hippo Pathway TEAD Reporter - MCF7 cell line, luciferase); format: cell-based; conditions: Homo sapiens
Source text: TEAD inhibition can be assayed using Hippo Pathway TEAD Reporter—MCF7 Cell Line (BPS Bioscience, Catalog #: 60618).
The TEAD Reporter—MCF7 cell line contains the firefly luciferase gene under the control of TEAD responsive elements stably integrated into the human breast cancer cell line, MCF7. Inside the cells, basal unphosphorylated YAP/TAZ remains in the nucleus and induces the constitutive expression of luciferase reporter. The cell line is validated for the inhibition of the expression of luciferase reporter by the activators of the Hippo pathway.
• 1) Harvest TEAD Reporter—MCF7 cells from culture in growth medium and seed cells at a density of 35,000 cells per well into white clear-bottom 96-well microplate in 45 μl of assay medium. • 2) Incubate cells at 37° C. in a CO2 incubator for overnight. • 3) Dilute the activators (H2O2 or okadaic acid) stock in assay medium. Add 5 μl of diluted activators to the wells. The final concentration of DMSO in assay medium is 0.1%. • 4) Add 5 μl of assay medium with same concentration of DMSO without activator to control wells. • 5) Add 50 μl of assay medium with DMSO to cell-free control wells (for determining background luminescence). • 6) Set up each treatment in at least triplicate. • 7) Incubate cells at 37° C. in a CO2 incubator for 5-6 hours. • 8) Perform luciferase assay using the ONE-Step™ Luciferase Assay System following the protocol provided: Add 100 μl of ONE-Step™ Luciferase reagent per well and rock at room temperature for ˜15 minutes. Measure luminescence using a luminometer. • 9) Data Analysis: Obtain the background-subtracted luminescence by subtracting the average background luminescence (cell-free control wells) from the luminescence reading of all wells.
(§1) Certain compounds were tested in TEAD reporter assay, and in H226 and H28. A: EC50<0.1 uM; B: 0.1 uM≤EC50≤0.5 uM; C: EC50>0.5 uM.

[2] = Mouse pharmacokinetics study; format: in vivo; conditions: BALB/c mice, 10 mg/kg by oral gavage in 5% DMS/95% PEG400, plasma
Experimental: Formulated compounds were administered intravenously or orally via gavage to BALB/c mice. Typically, at 0.167, 0.5, 1, 2, 4, 6, 12, and 24 hours post-dose, blood was collected and processed to plasma by centrifugation and stored at −80° C. until analysis. Internal standard was added to each sample prior to protein precipitation with acetonitrile or TCA. The precipitates were filtered through a filter plate and the samples were analyzed by LC/MS/MS. A standard curve was prepared in plasma from typically from 1.0 ng/mL to 3000 ng/mL and processed in the same manner as the samples. Sample analysis was typically performed on a suitable LC/MS/MS system fitted with an analytical UPLC column and compounds eluted from the analytical column with a gradient from 30-95% 0.1% formic acid (v/v) in ACN: 0.1% formic acid (v/v) in water. Mass spectrometric detection of test compound and the internal standard was performed by MRM in positive mode. The pharmacokinetics of each compound were analyzed by Phoenix WinNonlin software (Pharsight, St. Louis, Mo.) via noncompartmental analysis.

[3] = tested on: H226; experiment: Anti-proliferation assay in H226 cells; format: cell-based; conditions: Homo sapiens
Experimental: as §1
(§2) Individual cell lines were grown in medium according to supplier instructions and seeded into 96-well plates at a density that ensured logarithmic growth over 72 hours. TEAD inhibitor compounds were administered to cells at a top concentration of 10 μm and subsequently a 10 point 3-fold serial dilution was conducted. After 72 hours, proliferation was quantified using Cell TITERGLO™ (Promega, Inc.) and compared to vehicle control. IC50 and EC50 values were generated using XLFit curve fitting software.

[4] = tested on: H28; experiment: Anti-proliferation assay in H28 cells; format: cell-based; conditions: Homo sapiens, NCI-H28
Experimental: as §1, §2

[5] = TEAD Reporter - MCF7 cells, read-out: TEAD Reporter Assay EC50
[6] = NCI-H226, H226 cells, read-out: H226 EC50

Structure (SMILES)	AUC(0-t) [2] [ng·h/mL]	Cmax [2] [ng/mL]	EC50 [1, 5] [µM]	EC50 [3, 6] [µM]	EC50 ([1]; MCF7, read-out: TEAD Reporter Assay EC50 (uM)) [µM]	EC50 ([3]; NCI-H226, read-out: H226 EC50 (uM)) [µM]	EC50 [4] [nM]
CNS(=O)(=O)c1cnc(Nc2cccc(C(F)(F)F)c2)c(-c2cn(C)cn2)c1 [I-36, N-Methyl-5-(1-methylimidazol-4-yl)-6-[3-(trifluoromethyl)anilino]pyridine-3-sulfonamide]	595	213			< 0.1	< 0.1	
CNS(=O)(=O)c1ccc(NCc2ccccc2)c(-c2nnn(C)n2)c1 [I-16, 4-(benzylamino)-N-methyl-3-(2-methyltetrazol-5-yl)benzenesulfonamide]			0.1 to 0.5	> 0.5			> 500
CNS(=O)(=O)c1ccc(Nc2cccc(C(F)(F)F)c2)c(-c2nnn(C)n2)c1 [P-14]	622	210					
Cn1nnc(-c2cc(B(O)O)ccc2Nc2cccc(C(F)(F)F)c2)n1 [I-17, [3-(2-methyltetrazol-5-yl)-4-[3-(trifluoromethyl)anilino]phenyl]boronic acid]			> 0.5	> 0.5			> 500
CNS(=O)(=O)c1ccc(Nc2cccc(C(F)(F)F)c2)c(-c2cn(C)cn2)c1 [P-12]	2330	558					
CNS(=O)(=O)c1ccc(Nc2ccc(C(F)(F)F)cn2)c(-c2cn(C)cn2)c1 [I-38, N-Methyl-3-(1-methylimidazol-4-yl)-4-[[5-(trifluoromethyl)-2-pyridyl]amino]benzenesulfonamide]	25900	1620	< 0.1	< 0.1			
CNS(=O)(=O)c1ccc(N[C@H](C)c2ccccc2)c(-c2cn(C)cn2)c1 [I-30, N-Methyl-3-(1-methylimidazol-4-yl)-4-[[(1R)-1-phenylethyl]amino]benzenesulfonamide]	887	882	< 0.1	< 0.1			

Continued, in another order:

AUC(0-t) [2] [ng·h/mL]	Cmax [2] [ng/mL]	EC50 [1, 5] [µM]	EC50 [3, 6] [µM]	Structure (SMILES)	EC50 ([1]; MCF7, read-out: TEAD Reporter Assay EC50 (uM)) [µM]	EC50 ([3]; NCI-H226, read-out: H226 EC50 (uM)) [µM]	EC50 [4] [nM]
521	351	< 0.1	< 0.1	CCNS(=O)(=O)c1ccc(Nc2cc(C(F)(F)F)ccn2)c(-c2cn(C)cn2)c1 [I-37, N-Ethyl-3-(1-methylimidazol-4-yl)-4-[[4-(trifluoromethyl)-2-pyridyl]amino]benzenesulfonamide]			
2250	1040	< 0.1	< 0.1	CNS(=O)(=O)c1ccc(NCc2ccccc2)c(-c2cn(C)cn2)c1 [I-27, 4-(Benzylamino)-N-methyl-3-(1-methylimidazol-4-yl)benzenesulfonamide]			> 500
4580	1090	< 0.1	< 0.1	CNS(=O)(=O)c1ccc(NCc2ccc(C(F)(F)F)cc2)c(-c2cn(C)cn2)c1 [I-32, N-Methyl-3-(1-methyl-1H-imidazol-4-yl)-4-((4-(trifluoromethyl)benzyl)amino)benzenesulfonamide]			
2520	774	< 0.1	< 0.1	CNS(=O)(=O)c1ccc(NCc2cccc(C(F)(F)F)c2)c(-c2cn(C)cn2)c1 [I-31, N-Methyl-3-(1-methyl-1H-imidazol-4-yl)-4-((3-(trifluoromethyl)benzyl)amino)benzenesulfonamide]			
731	420	< 0.1	< 0.1	CNS(=O)(=O)c1ccc(Nc2cc(C(F)(F)F)ccn2)c(-c2cn(C)cn2)c1 [I-33, N-Methyl-3-(1-methylimidazol-4-yl)-4-[[4-(trifluoromethyl)-2-pyridyl]amino]benzenesulfonamide]			
